Type in all cases: cell-based
Assay [1] deals with BRCA2 mutant ovarian tumor cell line PEO1. Put plainly: Cell sensitivity analysis on PEO1 cell line, single and combination treatment, Isobole plot. The procedure: Cell sensitivity analysis was performed to evaluate the synergistic effect of LP-184 and Olaparib on PEO1 cell line, which is an established BRCA2 mutant ovarian tumor cell line. Cells were seeded onto 96-well plate and were continuously exposed to drug treatment for 8.5 days. IC50 data were obtained from Olaparib, LP-184 single treatment and combination treatment.
Cell sensitivity analysis was performed to evaluate the synergistic effect of LP-184 and Talazoparib on PEO1 cell line. Experiments were done as described above. […] Furthermore, the synergistic effect of Talazoparib and LP-184 co-treatment was analyzed by using an Isobole plot (FIG. 4D).

In the next assay the test system is OVCAR3 (Ovarian). Put plainly: Bliss synergy score (MacSynergy II), LP-100 and PARP inhibitor, OVCAR3. The note with it: combination with LP-100, score >10 indicates synergy. The procedure:
(§1) This program allows the three-dimensional examination of drug interactions of all data points generated from the checkerboard combination of two inhibitors with Bliss-Independence model (not shown). Confidence bounds are determined from replicate data. […] The volumes of synergy or antagonism can be determined and graphically depicted in three dimensions and represent the relative quantity of synergism or antagonism per change in the two drug concentrations. Synergy and antagonism volumes are based on the Bliss independence model, which assumes that both compounds act independently on different targets. A set of predicted fractional responses faAB under the Bliss independence model is calculated as […] faB with faA and faB representing the fraction of possible responses, e.g. percent (%) inhibition, of compounds A and B at amounts dA and dB, respectively, and describes the percent inhibition of a combination of compounds A and B at amount (dA+dB).

The test system of a further assay is 22RV1 (Prostate). Put plainly: Bliss synergy score (MacSynergy II), LP-100 and PARP inhibitor, 22RV1. The note with it: combination with LP-100, score >10 indicates synergy. On the procedure:
as §1

Where [2] appears, read: Homo sapiens, PEO1, 204 h, PEO1, 8.5 days, Olaparib and LP-184 together, FIG. 3C, read-out: IC50 of Olaparib and LP-184 co-treatment (concentration of each drug giving 50% cell growth inhibition together).
Setting [3] is: Homo sapiens, PEO1, PEO1, Example 4, FIGS. 4A, 4B, read-out: IC50 single treatment.
[4] abbreviates: Homo sapiens, PEO1, PEO1, Talazoparib and LP-184 together, FIG. 4C, read-out: IC50 of Talazoparib and LP-184 co-treatment (concentration of each drug giving 50% cell growth inhibition together).
Where [5] appears, read: PEO1, Olaparib and LP-184 co-treatment, Example 3.
Where [6] appears, read: PEO1, Talazoparib and LP-184 co-treatment, Example 4.

Read-outs that look alike come from different tables or passages of the source.

The results in this text go back to patent publication US20240299322A1, “TREATING CANCERS WITH COMBINATIONS OF PARP INHIBITOR AND ACYLFULVENES” (LANTERN PHARMA INC., priority 2022, published 2024).

As for `CC1=C(CN(O)C(N)=O)C2=C(C)C3(CC3)[C@@](C)(O)C(=O)C2=C1` [LP-184, (−)-hydroxyureamethyl acylfulvene], the IC50 was 13.9 nM in assay [1] (setting [2]); 87.4 nM in assay [1] (Homo sapiens, PEO1, 204 h, PEO1, Example 4, FIGS. 4A, 4B, read-out: IC50 single treatment); 108 nM in assay [1] (Homo sapiens, PEO1, 204 h, PEO1, continuous exposure 8.5 days, Example 3, FIGS. 3A, 3B, read-out: IC50 single treatment); 87.4 nM in assay [1] (setting [3]); 7.2 nM in assay [1] (setting [4]). In addition, the “fold less in co-treatment compared to single drug treatment” value (“fold less in co-treatment” for short) in assay [1] (setting [5]) is on record as 7.77 fold; in assay [1] (setting [6]), 12.14 fold.
Consider `NC(=O)c1cccc2cn(-c3ccc([C@@H]4CCCNC4)cc3)nc12` [Niraparib], for which, in the assay on OVCAR3 (Ovarian), the “Bliss Synergy Score between LP-100 and PARP inhibitor” value turned out to be 10.34.
`O=C(c1cc(Cc2n[nH]c(=O)c3ccccc23)ccc1F)N1CCN(C(=O)C2CC2)CC1` [Olaparib, 4-[(3-[(4-cyclopropylcarbonyl)piperazin-4-yl]carbonyl)-4-fluorophenyl]met-hyl(2H)-phthalazin-1-one]: the IC50 in assay [1] (setting [2]) worked out at 279 nM; in assay [1] (setting [4]) it was 3.6 nM; in assay [1] (PEO1, continuous exposure 8.5 days, Example 3, FIGS. 3A, 3B, read-out: IC50 single treatment), 1250 nM. For the same compound, the “fold less in co-treatment” value in assay [1] (setting [5]) stood at 4.48 fold. In addition, the “Bliss Synergy Score between LP-100 and PARP inhibitor” value with OVCAR3 (Ovarian) is on record as 12.19.
As for `CNCc1ccc(-c2[nH]c3cc(F)cc4c3c2CCNC4=O)cc1` [Rucaparib, 8-Fluoro-2-{4-[(methylamino)methyl]phenyl}-1,3,4,5-tetrahydro-6H-azepino[-5,4,3-cd]indol-6-one], the “Bliss Synergy Score between LP-100 and PARP inhibitor” value turned out to be 18.57 with 22RV1 (Prostate) and 14.11 with OVCAR3 (Ovarian).
Regarding `Cn1ncnc1[C@H]1c2n[nH]c(=O)c3cc(F)cc(c23)N[C@@H]1c1ccc(F)cc1` [Talazoparib, (8S,9R)-5-fluoro-8-(4-fluorophenyl)-9-(1-methyl-1H-1,2,4-triazol-5-yl)-8,-9-dihydro-2H-pyrido[4,3,2de]phthalazin-3 (7H)-one], the IC50 in assay [1] (setting [3]) was 13.1 nM. In assay [1] (setting [6]), the “fold less in co-treatment” value is 3.64 fold.
